Measured values published in patent US20230088704A1, “A PHARMACEUTICAL COMBINATION FOR THE TREATMENT OF A CANCER” (ABILITY PHARMACEUTICALS S.L., priority 2020, published 2023).
Where two headings read alike, the source gives them in different places.

Legend:
Ishikawa cells [1] = assay: Human endometrial cancer xenograft, ABTL0812 with bevacizumab; type: in vivo; details: ABTL0812 oral 120 mg/kg/day; Bevacizumab ip 100 μg/dose every four days
Description: Methods: Mice were injected with 4×10^6 Ishikawa cells in one flank to induce tumor formation. […] Bevacizumab was administered ip at 100 μg/dose, every four days up to four administration. Tumor volume and body weight were monitored 3 times a week.

PDL1 = PDL1 expression in cancer cells by flow cytometry (Example 6.2); type: cell-based, human; details: Panc-1 cells; ABTL0812 50 μM, IFNγ 2.5 ng/ml or both
Description: Methods: Human cancer cell lines were incubated with 100 μM of ABTL0812 during 48 hours and collected for staining with anti-PDL1 antibody labeled with a fluorophore. After staining of cells with anti-PDL1 antibody, cells were run on Flow Cytometry (Facs Canto) to analyzed PDL1 levels in cancer cells. Additionally, we incubated Panc-1 cells with ABTL0812 (50 μM), IFNγ (2.5 ng/ml), a master regulator of PDL1 expression or a combination with both. Then, cells were collected, stained with anti-PDL1 antibody and analyzed by Flow Cytometry for the expression of PDL1.

Ishikawa cells [2] = assay: Human endometrial cancer xenograft, ABTL0812 with olaparib; type: in vivo; details: ABTL0812 oral 120 mg/kg/day; Olaparib oral 50 mg/kg/day
Description: Methods: Mice were injected with 4×10^6 Ishikawa cells in one flank to induce tumor formation. […] Olaparib was administered by the oral route 50 mg/kg/day. Tumor volume and body weight were monitored 3 times a week.

Ishikawa cells [3] = type: in vivo; details: ABTL0812 oral 120 mg/kg/day; Doxorubicin 5 mg/kg i.p. once a week
Description: Methods: Mice were injected with 4×10^6 Ishikawa cells in one flank to induce tumor formation. […] ABTL0812 was administered by the oral route at 120 mg/kg/day. Doxorubicin 5 mg/kg was administered intra-peritoneally once a week. Tumor volume and body weight were monitored 3 times a week.

JJN-3 cells = assay: Cell viability (MTT) and combination index, ABTL0812 with bortezomib; type: cell-based; details: ABTL0812 5 μM, Bortezomib 0.5 nM, alone or combined; 48h
Description: (§1) Methods: JJN-3 and OPM2 cells were seeded in 24-well plates and treated with ABTL0812 (5 μM), bortezomib (0.5 and 1 nM respectively) or a combination of both drugs and left in the incubator for 48h (0.5% FBS). Cell viability was studied by the MTT assay and combination index was determined to evaluate a possible synergism.
(§2) Cell viability was evaluated in all cases by MTT assay and the Combination Index (CI), to evaluate synergism, was calculated according to the method of Chou and Talalay (Chou 2006; Chou 2010), as follows: CI=(D)1/(Dx)1+(D)2/(Dx)2, where CI<1, =1, and >1 indicate synergism, additive effect, and antagonism, respectively. In the denominator, (Dx)1 is for D1 “alone” that inhibits a system x %, and (Dx)2 is for D2 “alone” that inhibits a system x %.

OPM2 cells = assay: as above; type: cell-based; details: ABTL0812 5 μM, Bortezomib 1 nM, alone or combined; 48h
Description: as §1, §2

bevacizumab [reference compound]
tumor volume (Ishikawa cells [1]): significantly reduced tumor volume

IFNγ: well described master regulator of PDL1 expression [reference compound]
PDL1 levels (PDL1): significantly higher levels of PDL1 compared with ABTL0812

O=C(c1cc(Cc2n[nH]c(=O)c3ccccc23)ccc1F)N1CCN(C(=O)C2CC2)CC1 [olaparib, reference compound]
tumor volume (Ishikawa cells [2]): significantly reduced tumor volume

COc1cccc2c1C(=O)c1c(O)c3c(c(O)c1C2=O)C[C@@](O)(C(=O)CO)C[C@@H]3O[C@H]1C[C@H](N)[C@H](O)[C@H](C)O1 [doxorubicin, reference compound]
tumor volume (Ishikawa cells [3]): significantly reduced tumor volume

CC(C)C[C@H](NC(=O)[C@H](Cc1ccccc1)NC(=O)c1cnccn1)B(O)O [Bortezomib, reference compound]
cell death (JJN-3 cells): ~15%
cell death (OPM2 cells): around 10%
